From patent publication US20250113823A1, “Arthropod Control Compositions” (priority 2022, published 2025)
Read-outs that look alike come from different tables or passages of the source.

Tests used:
Ixodes ricinus = assay: Warm Plate assay, tick repellence; details: for pest or weed control at 400 µg/mL / pest or weed control at 2000 µg/mL / pest or weed control at 10000 µg/mL: Ixodes ricinus, read-out: Percentage of repellence of ticks Ixodes ricinus on the warm plate
Aedes aegypti = assay: Warm Body assay, mosquito landings on treated warm body; assay type: in vivo; details: for pest or weed control at 3.2 µg/mL: 0.0032 mg/mL (Table 1); for pest or weed control at 7.1 µg/mL: 0.0071 mg/mL (Table 1); for pest or weed control at 35.7 µg/mL: 0.0357 mg/mL (Table 1); for pest or weed control at 53 µg/mL: 0.053 mg/mL (Table 1); for pest or weed control at 80 µg/mL: 0.08 mg/mL (Table 1); for pest or weed control at 178 µg/mL: 0.178 mg/mL (Table 1); for pest or weed control at 890 µg/mL: 0.89 mg/mL (Table 1); for pest or weed control at 2000 µg/mL: 2 mg/mL (Table 1); for pest or weed control at 4470 µg/mL: 4.47 mg/mL (Table 1)
Summary of the method: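 Compounds in ethanol (100 μL, various concentrations) were applied to a sandblasted glass dish covering the warm body (28.3 cm^2), with ethanol as control. Landings were counted automatically from 30 non-blood-fed, sugar-fed Aedes aegypti Rockefeller females aged 5–10 days, under 150 lux.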

Anopheles gambiae = assay: as above; assay type: in vivo
Experimental: Anopheles gambiae is also a model organism as it is anthropophilic and transmits malaria.
The controlling effect according to the present invention was assessed using an adapted Warm Body assay as defined in Kröber T, Kessler S, Frei J, Bourquin M, Guerin P M. 2010. J Am Mosq Control Assoc. 26: 381-386. In this in-vitro assay the number of mosquito landing on a warm body, simulating an attractive host treated with the tested stimuli, was measured in order to assess the repellence effect.
On the sandblasted glass Petri dish covering the warm body (28.3 cm^2), 100 μL of the compounds diluted at different concentrations in ethanol was applied. The number of mosquito landing on the warm body was counted for each stimulus and pure ethanol (solvent) as control.

[1] = Aedes aegypti, read-out: Percentage of repellence of mosquitoes Aedes aegypti landing on the warm body
[2] = Aedes aegypti, 0.016 mg/mL (Table 1), read-out: Percentage of repellence of mosquitoes Aedes aegypti landing on the warm body
[3] = Aedes aegypti, 0.4 mg/mL (Table 1), read-out: Percentage of repellence of mosquitoes Aedes aegypti landing on the warm body
[4] = Aedes aegypti, 10 mg/mL (Table 1), read-out: Percentage of repellence of mosquitoes Aedes aegypti landing on the warm body

| Structure (SMILES) | pest or weed control at 400 µg/mL (Ixodes ricinus) [%] | pest or weed control at 2000 µg/mL (Ixodes ricinus) [%] | pest or weed control at 10000 µg/mL (Ixodes ricinus) [%] | pest or weed control at 3.2 µg/mL (Aedes aegypti; [1]) [%] | pest or weed control at 7.1 µg/mL (Aedes aegypti; [1]) [%] | pest or weed control at 16 µg/mL (Aedes aegypti; [2]) [%] | pest or weed control at 35.7 µg/mL (Aedes aegypti; [1]) [%] | pest or weed control at 53 µg/mL (Aedes aegypti; [1]) [%] | pest or weed control at 80 µg/mL (Aedes aegypti; [1]) [%] | pest or weed control at 178 µg/mL (Aedes aegypti; [1]) [%] | pest or weed control at 400 µg/mL (Aedes aegypti; [3]) [%] | pest or weed control at 890 µg/mL (Aedes aegypti; [1]) [%] | pest or weed control at 2000 µg/mL (Aedes aegypti; [1]) [%] | pest or weed control at 4470 µg/mL (Aedes aegypti; [1]) [%] | pest or weed control at 10000 µg/mL (Aedes aegypti; [4]) [%] | other results |
| --- | --- | --- | --- | --- | --- | --- | --- | --- | --- | --- | --- | --- | --- | --- | --- | --- |
| COc1ccc(C=O)c(OC)c1OC [compound 2267, 2,3,4-trimethoxybenzaldehyde] | 66.7 | 86.7 | 71.4 | – | – | – | – | – | – | – | – | – | – | – | – | pest or weed control at 16 µg/mL (Aedes aegypti; Aedes aegypti, 0.016 mg/mL (Table 3), read-out: Percentage of repellence of mosquitoes Aedes aegypti landing on the warm body): 0%; pest or weed control at 400 µg/mL (Aedes aegypti; Aedes aegypti, 0.4 mg/mL (Table 3), read-out: Percentage of repellence of mosquitoes Aedes aegypti landing on the warm body): 81%; pest or weed control at 10000 µg/mL (Aedes aegypti; Aedes aegypti, 10 mg/mL (Table 3), read-out: Percentage of repellence of mosquitoes Aedes aegypti landing on the warm body): 96%; pest or weed control at 1 % (Aedes aegypti; Aedes aegypti, highest tested concentration, 1% (Table 3), read-out: repellence): > 90%; pest or weed control at 0.04 % (Aedes aegypti; Aedes aegypti, intermediate concentration of 0.04% (Table 3), read-out: repellence): > 75% |
| COC(=O)Oc1ccc(C)cc1OC [compound 1141, (2-methoxy-4-methylphenyl) methyl carbonate] | 8.3 | 58.3 | 66.7 | 24 | 39 | 17 | 13 | 50 | 39 | 67 | 72 | 98 | 89 | 87 | 91 | pest or weed control at 4470 µg/mL (Anopheles gambiae; Anopheles gambiae, 4.47 mg/mL (Table 4), read-out: Percentage of repellence of mosquitoes Anopheles gambiae landing on the warm body): 100%; pest or weed control at 10000 µg/mL (Anopheles gambiae; Anopheles gambiae, 10 mg/mL (Table 4), read-out: Percentage of repellence of mosquitoes Anopheles gambiae landing on the warm body): 69%; repellence (no mosquito landing on the attractive stimulus) (Anopheles gambiae; with at least one of the two concentrations 0.447% & 1% (Table 4)): 100% |
| C=CCc1cc(OC)c(O)c(OC)c1 [compound 1191, 4-allyl-2,6-dimethoxyphenol] | 41.7 | 58.3 | 91.7 | 60 | 52 | 70 | 68 | 67 | 62 | 86 | 93 | 98 | 97 | 98 | 100 | pest or weed control at 119 µg/mL (Aedes aegypti; Aedes aegypti, 0.119 mg/mL (Table 1), read-out: Percentage of repellence of mosquitoes Aedes aegypti landing on the warm body): 50%; pest or weed control at 267 µg/mL (Aedes aegypti; Aedes aegypti, 0.267 mg/mL (Table 1), read-out: Percentage of repellence of mosquitoes Aedes aegypti landing on the warm body): 86%; pest or weed control at 598 µg/mL (Aedes aegypti; Aedes aegypti, 0.598 mg/mL (Table 1), read-out: Percentage of repellence of mosquitoes Aedes aegypti landing on the warm body): 98%; reduce mosquito landing (Aedes aegypti; since the lowest concentrations assessed (Table 1)): ≥ 50% |
| COc1ccc(C(C)=O)c(OC)c1 [compound 1557, 2,4-dimethoxyacetophenone] | – | – | – | – | – | – | – | – | – | – | – | – | – | – | – | Percentage of repellence of ticks Ixodes ricinus on the warm plate (Ixodes ricinus; 0.4 mg/mL (Table 10)): 25.0%; Percentage of repellence of ticks Ixodes ricinus on the warm plate (Ixodes ricinus; 2 mg/mL (Table 10)): 69.2%; Percentage of repellence of ticks Ixodes ricinus on the warm plate (Ixodes ricinus; 10 mg/mL (Table 10)): 66.7%; Percentage of repellence of mosquitoes Aedes aegypti landing on the warm body (Aedes aegypti; 0.016 mg/mL (Table 3)): 81%; Percentage of repellence of mosquitoes Aedes aegypti landing on the warm body (Aedes aegypti; 0.4 mg/mL (Table 3)): 93%; Percentage of repellence of mosquitoes Aedes aegypti landing on the warm body (Aedes aegypti; 10 mg/mL (Table 3)): 96% |
